Measurements: patent publication US20240101531A1, “PYRIDINAMINE DERIVATIVES AND THEIR USE AS POTASSIUM CHANNEL MODULATORS” (Xenon Pharmaceuticals Inc., priority 2022, published 2024)

Molecular target: human KV7.2/KV7.3 (Homo sapiens (Human), UniProt O43525+O43526)
Test: Potassium flux assay (IPG-2 AM dye)
Assay type: cell-based
Details: TREX HEK 293 or HEK 293 cells expressing human KV7.2/KV7.3; arithmetic mean values
Source text: This potassium flux assay employs the cell-permeable, potassium-sensitive dye, IPG-2 AM, to quantify potassium ion flux through potassium channels.
In general, TREX HEK 293 or HEK 293 cells were stably transfected with either an inducible or non-inducible expression vector containing the full-length cDNA coding for the desired human KV7.2/KV7.3 or in combination with another full-length cDNA for a second desired human KV7 potassium channel. Potassium channel-expressing cell lines were induced with tetracycline (1 μg/mL), if required, and plated on 384-well poly-D-lysine (PDL)-coated plates in culture media (DMEM, containing 10% FBS and 1% L-glutamine). After overnight incubation, culture media was removed and cells were loaded with 5 μM IPG-2 AM dye for 1 hour in Assay buffer (140 mM NaCl, 20 mM RbCl, 2 mM CaCl2, 1 mM MgCl2, 10 mM HEPES (4-(2-hydroxyethyl)-1-piperazineethanesulfonic acid buffer), 10 mM glucose, adjusted with Tris to pH 7.4). Excess dye was removed, and cells incubated at room temperature for 20 minutes with or without test compound. A Hamamatsu FDSS μCell was used to perform a 1:1 addition of K challenge buffer (150 mM NaCl, 10 mM HEPES, 2 mM CaCl2, 10 mM KCl, 1 mM MgCl2, 10 mM glucose, adjusted with Tris to pH 7.4 for human KV7.2/KV7.3, and simultaneously read plates at excitation wavelength of 530 nm and emission wavelength of 558 nm. Non-potassium channel-mediated potassium influx was determined in the presence of DMSO, and maximal influx was determined in the presence of a known KV7.x channel modulator. For each test compound, a concentration response curve was generated with 16 concentrations points, 2-fold serial dilution starting at 30 μM and an EC50 value was determined.

EC50 | SMILES
1 to 10 µM | FC(F)(F)CN1CC(COc2ccc3c(Nc4ccc(Cl)nc4)nccc3c2)C1 [Example 310, N-(6-chloropyridin-3-yl)-6-((1-(2,2,2-trifluoroethyl)azetidin-3-yl)methoxy)isoquinolin-1-amine]
< 1 µM | Cc1ncc(Nc2nccc3cc(OCC4(C#N)CC4)ccc23)cn1 [Example 127, 1-(((1-((2-methylpyrimidin-5-yl)amino)isoquinolin-6-yl)oxy)methyl)cyclopropane-1-carbonitrile]
10 to 30 µM | CO[C@H]1CC[C@H](Oc2ccc3c(Nc4ccc(Cl)nc4)nccc3c2)CC1 [Example 105, N-(6-chloropyridin-3-yl)-6-(((1r,4r)-4-methoxycyclohexyl)oxy)isoquinolin-1-amine]
< 1 µM | CCC1(COc2ccc3c(Nc4ccc(Cl)nc4)nccc3c2)COC1 [Example 328, N-(6-chloropyridin-3-yl)-6-((3-ethyloxetan-3-yl)methoxy)isoquinolin-1-amine]
1 to 10 µM | COCCOCCOc1ccc2c(Nc3ccc(Cl)nc3)nccc2c1 [Example 236, N-(6-chloropyridin-3-yl)-6-(2-(2-methoxyethoxy)ethoxy)isoquinolin-1-amine]
1 to 10 µM | Cc1ncc(Nc2nccc3cc(OCC4COC4)ccc23)cn1 [Example 221, N-(2-methylpyrimidin-5-yl)-6-(oxetan-3-ylmethoxy)isoquinolin-1-amine]
1 to 10 µM | Cc1ccc(Nc2nccc3cc(OCC4(F)CC4)ccc23)cn1 [Example 190, 6-((1-fluorocyclopropyl)methoxy)-N-(6-methylpyridin-3-yl)isoquinolin-1-amine]
1 to 10 µM | O=S1(=O)CC[C@H](Oc2ccc3c(Nc4ccc(Cl)nc4)nccc3c2)C1 [Example 262, (S)-3-((1-((6-chloropyridin-3-yl)amino)isoquinolin-6-yl)oxy)tetrahydrothiophene 1,1-dioxide]
1 to 10 µM | CC1(CCc2ccc3c(Nc4ccc(Cl)nc4)nccc3c2)COC1 [Example 341, N-(6-chloropyridin-3-yl)-6-(2-(3-methyloxetan-3-yl)ethyl)isoquinolin-1-amine]
10 to 30 µM | Clc1ccc(Nc2ncc(NCc3ccccc3)c3cc[nH]c23)cn1 [Example 403, N^4-benzyl-N^7-(6-chloropyridin-3-yl)-1H-pyrrolo[2,3-c]pyridine-4,7-diamine]
1 to 10 µM | FC1(COc2ccc3c(Nc4cncc(Cl)c4)nccc3c2)CC1 [Example 48, N-(5-chloropyridin-3-yl)-6-((1-fluorocyclopropyl)methoxy)isoquinolin-1-amine]
1 to 10 µM | Cc1nn(C)cc1[C@H](C)Oc1ccc2c(Nc3ccc(Cl)nc3)nccc2c1 [Example 175, (S)—N-(6-chloropyridin-3-yl)-6-(1-(1,3-dimethyl-1H-pyrazol-4-yl)ethoxy)isoquinolin-1-amine]
1 to 10 µM | Clc1ccc(Nc2nccc3cc(OCCOC4CC4)ccc23)cn1 [Example 39, N-(6-chloropyridin-3-yl)-6-(2-cyclopropoxyethoxy)isoquinolin-1-amine]
1 to 10 µM | CS(=O)(=Nc1ccc2c(Nc3ccc(Cl)nc3)nccc2c1)C1CCOCC1 (stereo not shown) [Example 270, ((1-((6-chloropyridin-3-yl)amino)isoquinolin-6-yl)imino)(methyl)(tetrahydro-2H-pyran-4-yl)-λ^6-sulfanone]
1 to 10 µM | CS(=O)(=Nc1ccc2c(Nc3ccc(Cl)nc3)nccc2c1)C1COC1 (stereo not shown) [Example 275, ((1-((6-chloropyridin-3-yl)amino)isoquinolin-6-yl)imino)(methyl)(oxetan-3-yl)-λ^6-sulfanone]
1 to 10 µM | CN1C(=O)CCC1COc1ccc2c(Nc3ccc(Cl)nc3)nccc2c1 (stereo not shown) [Example 53, 5-(((1-((6-chloropyridin-3-yl)amino)isoquinolin-6-yl)oxy)methyl)-1-methylpyrrolidin-2-one]
1 to 10 µM | Clc1ccc(Nc2nccc3cc(OCc4cc[nH]n4)ccc23)cn1 [Example 391, 6-((1H-pyrazol-3-yl)methoxy)-N-(6-chloropyridin-3-yl)isoquinolin-1-amine]
1 to 10 µM | N#C[C@@H]1CCC[C@@H](Oc2ccc3c(Nc4ccc(Cl)nc4)nccc3c2)C1 [Example 344, (1R,3R)-3-((1-((6-chloropyridin-3-yl)amino)isoquinolin-6-yl)oxy)cyclohexane-1-carbonitrile]
10 to 30 µM | O=C(NCC1CC1)c1ccc2c(Nc3ccc(Cl)nc3)nccc2c1 [Example 419, 1-((6-chloropyridin-3-yl)amino)-N-(cyclopropylmethyl)isoquinoline-6-carboxamide]
10 to 30 µM | Clc1ccc(Nc2nccc3cc(-c4cncnc4)ccc23)cn1 [Example 423, N-(6-chloropyridin-3-yl)-6-(pyrimidin-5-yl)isoquinolin-1-amine]
1 to 10 µM | Cc1ncc(Nc2nccc3cc(OC(C)c4cnn(C)c4)ccc23)cn1 (stereo not shown) [Example 169, 6-(1-(1-methyl-1H-pyrazol-4-yl)ethoxy)-N-(2-methylpyrimidin-5-yl)isoquinolin-1-amine]
1 to 10 µM | C[C@]1(O)CC[C@H](Oc2ccc3c(Nc4ccc(Cl)nc4)nccc3c2)CC1 [Example 264, trans-4-((1-((6-chloropyridin-3-yl)amino)isoquinolin-6-yl)oxy)-1-methylcyclohexan-1-ol]
< 1 µM | COc1ncc(Nc2nccc3cc(OCC4(C)COC4)ccc23)cn1 [Example 370, N-(2-methoxypyrimidin-5-yl)-6-((3-methyloxetan-3-yl)methoxy)isoquinolin-1-amine]
< 1 µM | O[C@]1(C(F)(F)F)CCC[C@H](Oc2ccc3c(Nc4cnc(Cl)nc4)nccc3c2)C1 (racemic) [Example 145, rac-(1R,3S)-3-((1-((2-chloropyrimidin-5-yl)amino)isoquinolin-6-yl)oxy)-1-(trifluoromethyl)cyclohexan-1-ol]
< 1 µM | Cc1c(COc2ccc3c(Nc4cnc(Cl)nc4)nccc3c2)cnn1C [Example 352, N-(2-chloropyrimidin-5-yl)-6-((1,5-dimethyl-1H-pyrazol-4-yl)methoxy)isoquinolin-1-amine]
< 1 µM | Cn1cncc1COc1ccc2c(Nc3ccc(Cl)nc3)nccc2c1 [Example 65, N-(6-chloropyridin-3-yl)-6-((1-methyl-1H-imidazol-5-yl)methoxy)isoquinolin-1-amine]
< 1 µM | Clc1ncc(Nc2nccc3cc(OCc4cnoc4)ccc23)cn1 [Example 242, N-(2-chloropyrimidin-5-yl)-6-(isoxazol-4-ylmethoxy)isoquinolin-1-amine]
< 1 µM | Cc1ncc(Nc2nccc3cc(O[C@@H]4CCC[C@H](O)C4)ccc23)cn1 [Example 340, (1 S,3R)-3-((1-((2-methylpyrimidin-5-yl)amino)isoquinolin-6-yl)oxy)cyclohexan-1-ol]
1 to 10 µM | Clc1ccc(Nc2nccc3cc(OC4CCN(Cc5ccccc5)C4)ccc23)cn1 (stereo not shown) [Example 282, 6-((1-benzylpyrrolidin-3-yl)oxy)-N-(6-chloropyridin-3-yl)isoquinolin-1-amine]
1 to 10 µM | C[C@@]1(COc2ccc3c(Nc4ccc(Cl)nc4)nccc3c2)CCCO1 [Example 303, (S)—N-(6-chloropyridin-3-yl)-6-((2-methyltetrahydrofuran-2-yl)methoxy)isoquinolin-1-amine]

SMILES | EC50
F[C@H]1C[C@H](Oc2ccc3c(Nc4ccc(Cl)nc4)nccc3c2)C1 [Example 408, N-(6-chloropyridin-3-yl)-6-((1r,3r)-3-fluorocyclobutoxy)isoquinolin-1-amine] | 1 to 10 µM
